Where a name gives a salt, the structure may show the parent alone.
Tests used:
18f-NLuc reporter virus = test: microbe, parasite or virus in culture; assay type: cell-based, Hepatitis A virus; conditions: for activity at 10 µM: Hepatovirus A, Huh-7.5.1, 72 h, read-out: Normalized HAV production
Huh-7.5.1 cells = test: Cell viability in the chemical screen (Cell TiterGlo); conditions: 10 µM compound, 72 h

Row | Molecule | activity at 10 µM (18f-NLuc reporter virus) [%] | Viability Percent DMSO (Huh-7.5.1 cells) [Percent DMSO] | Normalized HAV production (18f-NLuc reporter virus)
1 | C=CC1=C(C(=O)O)N2C(=O)[C@@H](NC(=O)/C(=N\OCC(=O)O)c3csc(N)n3)[C@H]2SC1 [Cefixime] | 90 | 109 | 
2 | Cc1cn([C@H]2O[C@@H](CO)[C@H](O)[C@H]2F)c(=O)[nH]c1=O [Clevudine] | 84 | 132 | 
3 | CC(C)[C@H](N)C(=O)OCCOCn1cnc2c(=O)[nH]c(N)nc21 [Valacyclovir hydrochloride] | 87 | 117 | 
4 | COc1ccnc(C[S+]([O-])c2nc3ccc(-n4cccc4)cc3[n-]2)c1C.[Na+] (stereo not drawn) [Ilaprazole sodium] |  | 159 | 0.66
5 | Nc1nc(O)c2ncn(COC(CO)CO)c2n1 [Ganciclovir] | 87 | 115 | 
6 | CC(=O)OCC(CCn1cnc2cnc(N)nc21)COC(C)=O [Famciclovir] | 115 | 123 | 
7 | CO/N=C(\C(=O)N[C@@H]1C(=O)N2C(C(=O)O)=C(COC(C)=O)CS[C@H]12)c1csc(N)n1 [Cefotaxime sodium] | 80 | 113 | 
8 | CC(=O)Oc1c(C)c(C)c2c(c1C)CCC(C)(CCC[C@H](C)CCC[C@H](C)CCCC(C)C)O2 (stereo partly drawn) [Vitamin E Acetate] | 133 | 82 | 
9 | CC1(C)O[C@H]2CC(=O)OC[C@]23[C@H]2CC[C@@]4(C)[C@H](c5ccoc5)OC(=O)[C@H]5O[C@]54[C@]2(C)C(=O)C[C@@H]13 [Limonin] | 85 | 111 | 
10 | CC(C)c1cc(Oc2c(Cl)cc(-n3nc(C#N)c(=O)[nH]c3=O)cc2Cl)n[nH]c1=O [MGL3196] | 136 | 118 | 
11 | COc1cc(NC(=O)Nc2cccc(CNC(=O)O[C@H]3CCOC3)c2)ccc1-c1cnco1 [Merimepodib] | 34 | 159 | 
12 | C[C@H](NC(=O)C(=O)Nc1ccccc1C(C)(C)C)C(=O)N[C@@H](CC(=O)O)C(=O)COc1c(F)c(F)cc(F)c1F [Emricasan] | 164 | 90 | 
13 | O=C(O)[C@H]1O[C@@H](Oc2cc3oc(-c4ccccc4)cc(=O)c3c(O)c2O)[C@H](O)[C@@H](O)[C@@H]1O [Baicalin] | 81 | 114 | 
14 | CC1(C)S[C@@H]2[C@H](NC(=O)[C@H](N)c3ccccc3)C(=O)N2[C@H]1C(=O)O [Ampicillin Trihydrate] | 76 | 116 | 
15 | COc1cc2ncnc(Nc3cccc(Cl)c3)c2cc1OC [AG-1478] |  | 164 | 0.51
16 | C=CC1=C(C(=O)O)N2C(=O)[C@@H](NC(=O)/C(=N\O)c3csc(N)n3)[C@H]2SC1 [Cefdinir] | 97 | 101 | 
17 | Darunavir Ethanolate |  | 111 | 1.54
18 | O=C1C[C@@H](c2ccc(O)cc2)Oc2cc(O)cc(O)c21 [Naringenin] | 86 | 112 | 
19 | Cc1cccc(C)c1N(CC(=O)Nc1ccc(-c2ncon2)cc1)C(=O)C1CCS(=O)(=O)CC1 [Amenamevir] | 109 | 116 | 
20 | O=c1[nH]cnc2c1ncn2[C@H]1CC[C@@H](CO)O1 [Didanosine] | 155 | 108 | 
21 | O=c1[nH]cc(F)c(=O)[nH]1 [Fluorouracil] | 84 | 103 | 
22 | NC(=O)c1nc(F)c[nH]c1=O [Favipiravir] | 56 | 128 | 
23 | CCOCc1nc2c(N)nc3ccccc3c2n1CC(C)(C)O [Resiquimod] | 130 | 107 | 
24 | CC(C)CN(C[C@@H](O)[C@H](Cc1ccccc1)NC(=O)O[C@H]1CCOC1)S(=O)(=O)c1ccc(N)cc1 [Amprenavir] | 91 | 121 | 
25 | CN[C@@H]1[C@H](O)[C@H](NC)[C@H]2O[C@@]3(O)C(=O)C[C@@H](C)O[C@H]3O[C@@H]2[C@H]1O.Cl.Cl [Spectinomycin dihydrochloride] |  | 109 | 0.83
26 | C[C@H]1CC[C@@]2(O)C(C)(C)[C@@H]3CC[C@@]2(C)[C@H]1C3 [Patchouli alcohol] |  | 122 | 1.10
27 | CCn1cc(C(=O)O)c(=O)c2cc(F)c(N3CCNCC3)nc21 [Enoxacin] | 89 | 159 | 

Row | Molecule | activity at 10 µM (18f-NLuc reporter virus) [%] | Viability Percent DMSO (Huh-7.5.1 cells) [Percent DMSO] | Normalized HAV production (18f-NLuc reporter virus)
28 | O=C(O)c1cc(=O)[nH]c(=O)[nH]1 [Orotic acid] | 85 | 105 | 
29 | CC1(C)CC[C@]2(C(=O)O)CC[C@]3(C)C(=CC[C@@H]4[C@@]5(C)CC[C@H](O)C(C)(C)[C@@H]5CC[C@]43C)[C@@H]2C1 [Oleanolic Acid] | 82 | 118 | 
30 | CN(C)C[C@H](O)Cn1c2ccc(Br)cc2c2cc(Br)ccc21 (racemic) [Wiskostatin] | 101 | 92 | 
31 | C=C1[C@H](CO)[C@@H](O)C[C@@H]1n1cnc2c(=O)[nH]c(N)nc21 [Entecavir hydrate] | 93 | 125 | 
32 | CC(C)[C@H](N)C(=O)OCC(CO)OCn1cnc2c(=O)nc(N)[nH]c21 (stereo partly drawn) [Valganciclovir hydrochloride] | 90 | 110 | 
33 | CO/N=C(\C(=O)N[C@@H]1C(=O)N2C(C(=O)O)=C(C[N+]3(C)CCCC3)CS[C@H]12)c1csc(N)n1 [Cefepime Dihydrochloride Monohydrate] | 73 | 116 | 
34 | Cc1cc(F)c(C(=O)Nc2cccc(-c3nncn3C(C)C)n2)cc1-n1cnc(C2CC2)c1 [Selonsertib] | 38 | 131 | 
35 | O=C(O)P(=O)(O)O [Foscarnet sodium] | 109 | 94 | 
36 | Cc1nc(Nc2ccc(F)cc2)nc(N2CCc3ccccc3C2C)c1C (stereo not drawn) [Revaprazan hydrochloride] | 87 | 115 | 
37 | Cc1cn([C@H]2C[C@H](N=[N+]=[N-])[C@@H](CO)O2)c(=O)[nH]c1=O [Zidovudine] | 131 | 92 | 
38 | CC(=O)Oc1ccccc1C(=O)Nc1ncc([N+](=O)[O-])s1 [Nitazoxanide] | 24 | 41 | 
39 | CN(C(=O)CN(CCO)CC(=O)N(C)C(C)(C)Cc1ccccc1)C(C)(C)Cc1ccccc1 [Oxethazaine] | 76 | 102 | 
40 | CC(=O)OCC(=O)[C@@]1(O)CC[C@H]2[C@@H]3CCC4=CC(=O)C=C[C@]4(C)[C@@]3(Cl)[C@@H](Cl)C[C@@]21C [Dichlorisone Acetate] | 97 | 105 | 
41 | O=C(O)c1ccccc1C(=O)Nc1ccc(S(=O)(=O)Nc2nccs2)cc1 [Phthalylsulfathiazole] | 83 | 112 | 
42 | Nc1ccn([C@H]2CC[C@@H](CO)O2)c(=O)n1 [Zalcitabine] | 98 | 99 | 
43 | O=C1c2cccc(O)c2C(=O)c2c(O)cc(CO)cc21 [Aloe-emodin] | 118 | 90 | 
44 | O=c1[nH]c(=O)n([C@H]2C[C@H](O)[C@@H](CO)O2)cc1/C=C/Br [Brivudine] | 94 | 110 | 
45 | Clc1ccc(Cn2c(CN3CCCC3)nc3ccccc32)cc1 [Clemizole] | 58 | 166 | 
46 | Nc1ccn([C@@H]2O[C@H](CO)[C@@H](O)[C@@H]2O)c(=O)n1 [Cytarabine] | 66 | 97 | 
47 | COc1cc(O)c(CC=C(C)C)c(O)c1C(=O)/C=C/c1ccc(O)cc1 [Xanthohumol] | 92 | 102 | 
48 | O=c1c2ccccc2[se]n1-c1ccccc1 [Ebselen] | 56 | 123 | 
49 | Nc1ncnc2c1ncn2[C@@H]1O[C@H](CO)[C@@H](O)[C@@H]1O [Vidarabine] | 104 | 119 | 
50 | CC(C)=O.COC(=O)N[C@H](C(=O)N1CC2(CC2)C[C@H]1c1ncc(-c2ccc3c(c2)C(F)(F)c2cc(-c4ccc5nc([C@@H]6[C@H]7CC[C@H](C7)N6C(=O)[C@@H](NC(=O)OC)C(C)C)[nH]c5c4)ccc2-3)[nH]1)C(C)C [Ledipasvir acetone] |  | 172 | 0.48
51 | Cc1nc(N(C)C(=O)Cc2ccc(-c3ccccn3)cc2)sc1S(N)(=O)=O [Pritelivir] | 78 | 127 | 
52 | C[C@@H]1CC[C@H]2[C@@H](C)C(=O)O[C@@H]3O[C@@]4(C)CC[C@@H]1[C@]32OO4 [Artemisinin] | 76 | 101 | 
53 | OC[C@H]1O[C@@H]2O[C@H]3[C@H](O)[C@@H](O)[C@@H](O[C@H]4[C@H](O)[C@@H](O)[C@@H](O[C@H]5[C@H](O)[C@@H](O)[C@@H](O[C@H]6[C@H](O)[C@@H](O)[C@@H](O[C@H]7[C@H](O)[C@@H](O)[C@@H](O[C@H]8[C@H](O)[C@@H](O)[C@@H](O[C@H]1[C@H](O)[C@H]2O)O[C@@H]8CO)O[C@@H]7CO)O[C@@H]6CO)O[C@@H]5CO)O[C@@H]4CO)O[C@@H]3CO [Beta-Cyclodextrin] | 72 | 117 | 
54 | CCOC(=O)c1c(C)n(C)c2ccc(O)cc12 [Mecarbinate] |  | 100 | 1.17
